IC50 data for 13 compounds are collected here from patent US10189842B2 (Agency for Science, Technology and Research, priority 2013, dated 2019).

A value given as a limit tells only on which side of the number the result lay.

The test system of this assay is HEK293-STF3A cells. As to the kind of experiment: STF3A assay (luciferase reporter). As to conditions: Homo sapiens, 24 h, 1 day of treatment. It counts as cell-based, Human. An outline of the steps: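 HEK293 cells carrying the STF reporter and expressing Wnt3A, seeded 2×10^4 per well overnight, then treated 1 day with compound at final 50 μM to 1.5 nM. Luciferase activity read by luminescence after Steady-Glo reagent, 10 min at room temperature.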
On the technique in general: In a reporter assay the amount or activity of a reporter protein is the signal.
What is called IC50 is the concentration at which inhibition is half-maximal. `Cc1cc2n(n1)CC(C)CN2C(=O)CCC(=O)Nc1ccc(-c2ccccc2)nn1` (stereo not shown) [Compound 139, 4-(2,6-dimethyl-6,7-dihydropyrazolo[1,5-a]pyrimidin-4(5H)-yl)-4-oxo-N-(6-phenylpyridazin-3-yl)butanamide] registered an IC50 below 100 nM.

Turning to `Cc1cc2n(n1)CC(C)CN2C(=O)CCC(=O)Nc1ccc(-c2cccnc2)nc1` (stereo not shown) [Compound 140, N-(2,3′-bipyridin-5-yl)-4-(2,6-dimethyl-6,7-dihydropyrazolo[1,5-a]pyrimidin-4(5H)-yl)-4-oxobutanamide], the IC50 is below 100 nM.

Compound `Cc1cc2n(n1)CC(C)CN2C(=O)CCC(=O)Nc1ccc(-c2cccnc2)nn1` (stereo not shown) [Compound 141, 4-(2,6-dimethyl-6,7-dihydropyrazolo[1,5-a]pyrimidin-4(5H)-yl)-4-oxo-N-(6-(pyridin-3-yl)pyridazin-3-yl)butanamide] returned an IC50 below 100 nM.

The compound `Cc1cncc(-c2ccc(NC(=O)CCC(=O)N3CC(C)Cn4nc(C)cc43)nc2)c1` (stereo not shown) [Compound 142, 4-(2,6-dimethyl-6,7-dihydropyrazolo[1,5-a]pyrimidin-4(5H)-yl)-N-(5′-methyl-[3,3′-bipyridin]-6-yl)-4-oxobutanamide] returned an IC50 below 100 nM.

For the compound `Cc1cncc(-c2ccc(NC(=O)CCC(=O)N3CC(C)Cn4nc(C)cc43)cn2)c1` (stereo not shown) [Compound 144, 4-(2,6-dimethyl-6,7-dihydropyrazolo[1,5-a]pyrimidin-4(5H)-yl)-N-(5′-methyl-[2,3′-bipyridin]-5-yl)-4-oxobutanamide], the IC50 is below 100 nM.

`Cc1cc2n(n1)CCCN2C(=O)CC(C)C(=O)Nc1ccc(-c2cccnc2)nc1` (stereo not shown) [Compound 145, N-([2,3′-bipyridin]-5-yl)-2-methyl-4-(2-methyl-6,7-dihydropyrazolo[1,5-a]pyrimidin-4(5H)-yl)-4-oxobutanamide] displayed an IC50 below 100 nM.

Compound `Cc1cc2n(n1)CCCN2C(=O)CC(C)C(=O)Nc1ccc(-c2ccccc2)nn1` (stereo not shown) [Compound 146, 2-methyl-4-(2-methyl-6,7-dihydropyrazolo[1,5-a]pyrimidin-4(5H)-yl)-4-oxo-N-(6-phenylpyridazin-3-yl)butanamide] gave an IC50 below 100 nM.

As for `Cc1cc2n(n1)CCCN2C(=O)CC(C)C(=O)Nc1ccc(-c2cccnc2)cn1` (stereo not shown) [Compound 147, N-([3,3′-bipyridin]-6-yl)-2-methyl-4-(2-methyl-6,7-dihydropyrazolo[1,5-a]pyrimidin-4(5H)-yl)-4-oxobutanamide], the 50% inhibitory concentration (IC50) is below 100 nM.

For `Cc1ccnc(-c2ccc(NC(=O)CCC(=O)N3CCCn4nc(C)cc43)nc2)c1` [Compound 148, N-(4-methyl-2,3′-bipyridin-6′-yl)-4-(2-methyl-6,7-dihydropyrazolo[1,5-a]pyrimidin-4(5H)-yl)-4-oxobutanamide], the IC50 is below 100 nM.

The compound `Cc1cnc(-c2ccc(NC(=O)CCC(=O)N3CCCn4nc(C)cc43)nc2)cn1` [Compound 149, 4-(2-methyl-6,7-dihydropyrazolo[1,5-a]pyrimidin-4(5H)-yl)-N-(5-(5-methylpyrazin-2-yl)pyridin-2-yl)-4-oxobutanamide] came in with a concentration for half-maximal inhibition (IC50) below 100 nM.

Compound `Cc1cncc(-c2ccc(NC(=O)C(C)CC(=O)N3CCCn4nc(C)cc43)cn2)c1` (stereo not shown) [Compound 150, 2-methyl-4-(2-methyl-6,7-dihydropyrazolo[1,5-a]pyrimidin-4(5H)-yl)-N-(5′-methyl-[2,3′-bipyridin]-5-yl)-4-oxobutanamide] yielded an IC50 below 100 nM.

For `Cc1cncc(-c2ccc(NC(=O)C(C)CC(=O)N3CCCn4nc(C)cc43)nc2)n1` (stereo not shown) [Compound 151, 2-methyl-4-(2-methyl-6,7-dihydropyrazolo[1,5-a]pyrimidin-4(5H)-yl)-N-(5-(6-methylpyrazin-2-yl)pyridin-2-yl)-4-oxobutanamide], the IC50 is below 100 nM.

In the case of `Cc1cncc(-c2ccc(NC(=O)C(C)CC(=O)N3CCCn4nc(C)cc43)nc2)c1` (stereo not shown) [Compound 152, 2-methyl-4-(2-methyl-6,7-dihydropyrazolo[1,5-a]pyrimidin-4(5H)-yl)-N-(5′-methyl-[3,3′-bipyridin]-6-yl)-4-oxobutanamide], the IC50 was below 100 nM.
